Molecular target: T1, VirB (VirB-His6) (Shigella flexneri, UniProt P0A247)
T1 construct: VirB with His6 tag, purified by Monserate Biotechnology Group by an earlier protocol; ParB superfamily protein encoded on the large virulence plasmid pINV; homodimer on DNA
Test: isothermal titration calorimetry
Assay type: binding
Conditions: 25 °C, pH 7.6, 25 mM HEPES, 100 mM NaCl, one set of sites

T1 sequence (P0A247 whole entry): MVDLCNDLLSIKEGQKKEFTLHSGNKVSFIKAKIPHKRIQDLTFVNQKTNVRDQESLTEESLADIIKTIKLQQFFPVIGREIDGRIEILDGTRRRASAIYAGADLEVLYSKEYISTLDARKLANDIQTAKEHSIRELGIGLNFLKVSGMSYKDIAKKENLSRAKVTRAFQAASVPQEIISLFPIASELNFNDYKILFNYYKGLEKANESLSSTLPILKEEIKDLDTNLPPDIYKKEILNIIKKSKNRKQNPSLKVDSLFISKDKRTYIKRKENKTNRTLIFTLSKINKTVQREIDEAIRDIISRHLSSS

Row | SMILES | Kd (5 mM MgCl2, 90 µM VirB-His6 (not fully saturated after 13 injections), no DNA) | Kd (5 mM MgCl2, 45 µM VirB-His6, no DNA)
1 | Nc1ccn([C@@H]2O[C@H](COP(=O)(O)OP(=O)(O)OP(O)(O)=S)[C@@H](O)[C@H]2O)c(=O)n1 [CTPγS] | 14.3 ± 0.5 µM | 
2 | Nc1ccn([C@@H]2O[C@H](COP(=O)(O)OP(=O)(O)OP(=O)(O)O)[C@@H](O)[C@H]2O)c(=O)n1 [CTP] |  | 9.3 ± 0.4 µM
